Patent US10214741B2, “Methods and compositions for inhibiting retinopathy of prematurity” (University of Utah Research Foundation, priority 2014, dated 2019)
“Also recorded” adds a separate entry of the source.

Columns and labels:
ROP+SO model = experiment: IVNV in rat ROP model rescued in 28% oxygen (ROP+SO model); assay type: in vivo; conditions: intraperitoneal, p18, vs. PBS
Description: Activation of NADPH oxidase generally requires aggregation of a NOX isoform (NOX1-5, Duox1 or 2) with membrane bound p22phox; for NOX1-3 activation, aggregation with Rac1 and cytoplasmic subunits p47phox, p67phox or homologs is also required. Few studies address oxygen effects on NADPH oxidase regulated signaling in ROP or development. Studying NADPH oxidase in vivo is also complicated, because 1) of compensation from NOX isoforms or homologs, which differ in different tissues, and 2) most inhibitors are not specific. In this example, oxygen stresses were varied by using 3 different OIR models: ROP and ROP+SO models in rat and OIR model in mouse. NADPH oxidase-induced signaling in ECs was targeted by reducing leukocyte/macrophages, which generate ROS through NADPH oxidase, or with a transgenic mouse. In rat ROP and ROP+SO models, macrophages ˜75% (FIG. 7A) were reduced with 1 uL intravitreal clodronate). […] Macrophages have multiple effects on angiogenesis including through non-NADPH oxidase mechanisms, so a more specific method was used to study NADPH oxidase-related signaling. NOX 1, 2, 4 are known to be involved in pathologic retinal angiogenesis; NOX2 is in macrophages and ECs. Therefore p47phox−/− mice were used to reduce NADPH oxidase activation from NOX 1-3. […]
7 experiments were conducted to accomplish three specific objectives. […] Pup weights were monitored. […]

hRMVECs [1] = experiment: TUNEL+ cells in hRMVECs; assay type: cell-based, human; conditions: vs. DMSO
hRMVECs [2] = experiment: VEGFA-induced hRMVEC proliferation assay (MTT); assay type: cell-based, human; conditions: 20 ng/mL VEGFA 24 hours; SU5416 5 μmol/L, AG490 10 μmol/L, siRNA transfection
Method: (§1) For siRNA transfection, hRMVECs at 70% confluency were transfected in six-well plates with siRNAs targeting human EPOR, VEGFR2, or STAT3 (Life Technologies, Carlsbad, Calif.) using Lipofectamine 2000 reagent (Invitrogen by Life Technologies, Carlsbad, Calif.). A silencer selective negative control siRNA was used as control.
For cell proliferation assays, hRMVECs were plated into 96-well plates at a density of 5000 cells per well. At 24 hours after transfection with siRNA, cells were starved in serum-free medium for 24 hours and then were incubated with 20 ng/mL VEGFA or control PBS for another 24 hours. To inhibit VEGFR2 or STAT3 activation, cells were pretreated with 5 μmol/L of the VEGFR2 tryosine-kinase inhibitor semaxanib (SU5416), 10 μmol/L of the JAK2/STAT3 inhibitor AG490 (both from Sigma-Aldrich, St. Louis, Mo.), or dimethyl sulfoxide (DMSO) vehicle control for 1 hour before addition of VEGFA. Cell number was measured with a Vybrant MTT cell proliferation assay kit (Life Technologies, Carlsbad, Calif.).

severe ROP = conditions: weekly subcutaneous injections; preterm infants (n=102); cited from earlier work
p-STAT3 = experiment: Western blot of p-STAT3 in hRMVECs; assay type: cell-based, human; conditions: VEGFA stimulation
Method: hRMVECs (Cell Systems, Kirkland, Wash.) were maintained in EGM-2 endothelial growth medium (Lonza, Walkers-ville, MD) supplemented with 5% fetal bovine serum. Cells of passage 3 to 5 were used for experiments. Confluent cells in six-well plates were starved for 16 hours and then treated with 20 ng/mL VEGFA or PBS for 24 hours for qPCR or 30 minutes for p-VEGFR2, p-EPOR, and p-STAT3.
as §1
(§2) For cell proliferation assays, hRMVECs were plated into 96-well plates at a density of 5000 cells per well. […] Cell number was measured with a Vybrant MTT cell proliferation assay kit (Life Technologies, Carlsbad, Calif.).
Dissected retinas and hRMVECs were lysed in radioimmunoprecipitation assay buffer with 1:100 protease inhibitors (Roche Diagnostics, Indianapolis, Ind.) and 2 mmol/L sodium orthovanadate and were homogenized and centrifuged at 13,000 rpm (15,700 g) for 10 minutes at 4° C. Total protein in the supernatant fluid was quantified by a bicinchoninic acid assay (Pierce BCA; Thermo Fisher Scientific, Waltham, Mass.). […] At least six samples from each group were measured and analyzed.

NOX4 = experiment: ROS generation mediated by NOX4 in hRMVECs; assay type: cell-based, human
p-VEGFR2 = molecular target: T1, p-VEGFR2 (Homo sapiens, UniProt P35968); experiment: Western blot of p-VEGFR2 in hRMVECs; assay type: cell-based; conditions: 30 minutes of EPO treatment
T1 construct: Dissected retinas and hRMVECs were lysed in radioimmunoprecipitation assay buffer; host or cells: hRMVECs
T1 sequence (P35968 20-1356): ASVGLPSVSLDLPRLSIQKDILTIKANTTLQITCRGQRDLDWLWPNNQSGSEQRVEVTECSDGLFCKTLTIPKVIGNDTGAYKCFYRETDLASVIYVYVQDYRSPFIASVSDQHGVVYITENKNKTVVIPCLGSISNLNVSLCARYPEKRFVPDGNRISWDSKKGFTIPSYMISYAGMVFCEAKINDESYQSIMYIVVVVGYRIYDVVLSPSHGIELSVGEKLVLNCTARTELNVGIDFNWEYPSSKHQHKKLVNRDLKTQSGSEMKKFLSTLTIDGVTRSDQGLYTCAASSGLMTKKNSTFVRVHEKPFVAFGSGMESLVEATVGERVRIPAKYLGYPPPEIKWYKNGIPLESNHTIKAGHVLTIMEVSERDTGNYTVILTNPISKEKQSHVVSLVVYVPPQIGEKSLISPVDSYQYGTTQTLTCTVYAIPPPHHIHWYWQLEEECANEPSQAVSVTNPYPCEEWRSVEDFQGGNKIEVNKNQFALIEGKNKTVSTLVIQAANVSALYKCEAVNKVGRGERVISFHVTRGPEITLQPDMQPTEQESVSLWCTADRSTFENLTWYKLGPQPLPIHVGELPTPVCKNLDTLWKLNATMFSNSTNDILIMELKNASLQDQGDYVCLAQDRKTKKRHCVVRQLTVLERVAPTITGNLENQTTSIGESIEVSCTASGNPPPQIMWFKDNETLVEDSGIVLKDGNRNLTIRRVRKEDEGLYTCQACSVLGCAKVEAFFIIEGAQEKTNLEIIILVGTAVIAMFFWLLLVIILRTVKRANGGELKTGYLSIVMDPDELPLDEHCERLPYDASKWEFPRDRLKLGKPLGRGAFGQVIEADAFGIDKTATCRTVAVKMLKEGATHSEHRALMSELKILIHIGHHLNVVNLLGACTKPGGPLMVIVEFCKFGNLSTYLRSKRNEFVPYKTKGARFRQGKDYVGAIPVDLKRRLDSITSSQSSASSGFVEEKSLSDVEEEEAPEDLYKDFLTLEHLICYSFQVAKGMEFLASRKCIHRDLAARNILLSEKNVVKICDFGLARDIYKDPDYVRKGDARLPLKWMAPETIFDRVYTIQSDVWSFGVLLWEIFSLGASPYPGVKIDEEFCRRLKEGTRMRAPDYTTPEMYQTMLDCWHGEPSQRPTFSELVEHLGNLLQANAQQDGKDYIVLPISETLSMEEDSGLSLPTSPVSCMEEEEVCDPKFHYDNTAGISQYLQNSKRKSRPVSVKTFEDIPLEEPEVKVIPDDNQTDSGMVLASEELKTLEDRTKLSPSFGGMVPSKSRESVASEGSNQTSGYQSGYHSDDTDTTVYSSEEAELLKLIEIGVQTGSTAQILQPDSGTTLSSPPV
Description: For siRNA transfection, hRMVECs at 70% confluency were transfected in six-well plates with siRNAs targeting human EPOR, VEGFR2, or STAT3 (Life Technologies, Carlsbad, Calif.) using Lipofectamine 2000 reagent (Invitrogen by Life Technologies, Carlsbad, Calif.). […]
Dissected retinas and hRMVECs were lysed in radioimmunoprecipitation assay buffer with 1:100 protease inhibitors (Roche Diagnostics, Indianapolis, Ind.) and 2 mmol/L sodium orthovanadate and were homogenized and centrifuged at 13,000 rpm (15,700 g) for 10 minutes at 4° C. Total protein in the supernatant fluid was quantified by a bicinchoninic acid assay (Pierce BCA; Thermo Fisher Scientific, Waltham, Mass.). […] Blots were visualized, and the relative densities of bands were calculated as described herein, using gel analysis software (UN-SCAN-IT gel, version 6.1; Silk Scientific, Orem, Utah). Relative activities were calculated as the ratio of phosphorylated to total protein or to β-actin and are expressed as fold difference compared with control. […]

EPOR = EPOR expression in hRMVECs (qPCR, Western blot); assay type: cell-based, human; conditions: overnight treatment; 20 ng/mL VEGFA or 10 IU/mL EPO; vs PBS
Description: (§3) hRMVECs (Cell Systems, Kirkland, Wash.) were maintained in EGM-2 endothelial growth medium (Lonza, Walkers-ville, MD) supplemented with 5% fetal bovine serum. Cells of passage 3 to 5 were used for experiments. […]
as §1
Total RNA of cells was extracted by TRI Reagent (Sigma-Aldrich, St. Louis, Mo.). For dissected retinas, total RNA was extracted using an RNeasy mini kit (Qiagen, Valencia, Calif.). RNA was quantified using a NanoDrop spectrophotometer (Thermo Fisher Scientific, Waltham, Mass.). cDNA was generated with the use of a high-capacity cDNA archive kit (Life Technologies, Carlsbad, Calif.). qPCR was performed on a Mastercycler ep realplex system (Eppendorf, Hauppauge, N.Y.) with the use of SYBR Green master mix (Roche Diagnostics, Indianapolis, Ind.) and primers synthesized by the core research facility of the University of Utah. Expression levels for VEGFA were normalized to the mean value of internal control β-actin. […]
(§4) Dissected retinas and hRMVECs were lysed in radioimmunoprecipitation assay buffer with 1:100 protease inhibitors (Roche Diagnostics, Indianapolis, Ind.) and 2 mmol/L sodium orthovanadate and were homogenized and centrifuged at 13,000 rpm (15,700 g) for 10 minutes at 4° C. Total protein in the supernatant fluid was quantified by a bicinchoninic acid assay (Pierce BCA; Thermo Fisher Scientific, Waltham, Mass.). […] Blots were visualized, and the relative densities of bands were calculated as described herein, using gel analysis software (UN-SCAN-IT gel, version 6.1; Silk Scientific, Orem, Utah). Relative activities were calculated as the ratio of phosphorylated to total protein or to β-actin and are expressed as fold difference compared with control. At least six samples from each group were measured and analyzed.

p-EPOR = experiment: Western blot of p-EPOR in hRMVECs; assay type: cell-based, human; conditions: 30 minutes of EPO treatment
Description: as §3, §1, §2
as §4, with “Relative activities were calculated as the ratio of phosphorylated to total protein or to β-actin and are expressed as fold difference compared with control. At least six samples from each group were measured and analyzed.” left out

rat ROP model = experiment: Lectin-stained retinal flat mounts, IVNV and AVA, rat ROP model (rat 50/10 OIR model); assay type: in vivo

In the case of `N#C/C(=C/c1ccc(O)c(O)c1)C(=O)NCc1ccccc1` [AG490], the IVNV (ROP+SO model) was “inhibited Phase II IVNV in the ROP+SO; also recorded: reduced IVNV”, the “TUNEL+ cells” value (hRMVECs [1]) was “increases TUNEL+ cells” and the “VEGFA-induced hRMVEC proliferation” value (hRMVECs [2]) was “reduced VEGFA-induced hRMVEC proliferation to baseline”.

In the case of darbepoietin, the “occurrence of severe ROP” value (severe ROP) is listed as “neither increased nor reduced the occurrence of severe ROP”.

For `CO[C@@H]1[C@@H]2OP(=O)(O)OC[C@H]2O[C@H]1n1c(Sc2ccc(Cl)cc2)nc2c(N)ncnc21` [8CPT, 8CPT 2′OMe-cAMP], the “VEGFA-induced p-STAT3” value (p-STAT3) was “inhibits VEGF (V)-induced STAT3 activation” and the “basal and VEGF-induced ROS generation” value (NOX4) was “inhibits VEGF (V)-induced STAT3 activation, B) basal and VEGF-induced ROS generation”.

For erythropoietin [EPO], the p-VEGFR2 level (p-VEGFR2) was “did not increase p-EPOR and p-VEGFR2 levels”, the EPOR protein (EPOR) was “led to an increase in EPOR protein” and the p-EPOR level (p-EPOR) was “did not increase p-EPOR and p-VEGFR2 levels”. For the same compound, the “Phase II IVNV” value (rat ROP model; ROP model) was “did not reduce Phase II IVNV”, the “PRVD in Phase I” value (rat ROP model; delivered at early ages) was “restored PRVD in Phase I” and the “restoration of developmental retinal vascularization” value (rat ROP model; exogenous) was 40%.
